{"source": "patent US20170295788A1", "about": "“USE OF HETEROCYCLIC FLUOROALKENYL SULFONE COMPOUNDS FOR REPELLING MOLLUSCS” (Adama Makhteshim Ltd., priority 2014, published 2017)", "tested_on": "Deroceras reticulatum", "test": "Split box trial: slug damage to lettuce seedlings / slug repellency", "assay_type": "in vivo", "method": "A split box trial was conducted using Deroceras reticulatum as the slug species and lettuce seedling as the food source. There were 5 split treatments with each treatment replicated four times using a simple randomized block design. Each plot was a single enclosed cage of dimensions 0.6 m×0.4 m. Each cage was of opaque plastic construction with rigid sides and a removable fine muslin top to prevent escape of the slugs. The cages were each filled with natural loam soil to a depth of approximately 7 cm, which was consolidated to prevent slug escape. Half of each box was covered with a polythene sheet before spraying to prevent the spray from reaching the soil on half of the box. […] Following the application of fluensulfone 250 CS, one treatment was incorporated into the soil by mixing the top 2 cm of the soil. The other applications had no soil incorporation. Lettuce plants were planted into the soil either seven or two days after spraying. At these intervals after spraying, six lettuce plants were planted into each cage, three in the treated side and three in the untreated side. After transplanting the lettuce plants, eight adult slugs were introduced into the centre of each cage. The soil was kept damp for the duration of the trials. [table] All sprayed treatments applied in 200 l/ha water. Assessments were carried out after the introduction of the slugs. Severity of leaf damage was assessed using a % scale where 0=no damage and 100=total loss of plant foliage. Incidence of plant damage was assessed by counting the actual number of plants showing damage.", "data": [{"smiles": "O=S(=O)(CCC(F)=C(F)F)c1ncc(Cl)s1", "note": "[fluensulfone]", "values": [{"measurement": "numbers of damaged lettuce plants", "setting": "all fluensulfone treated boxes, compared to the untreated box", "value": "reduced compared to the untreated box"}, {"measurement": "amount of damage caused to the lettuce plants (damage severity)", "setting": "treated boxes compared to the untreated box", "value": "reduced"}, {"measurement": "effect on live slugs (repellency)", "setting": "treated boxes, slugs avoided the sprayed side and migrated to the untreated side", "value": "repellent effect"}]}]}
